Literature values as cited in patent US5955508A, “Method for the enhancement of lymphocyte activity against opportunistic microbial pathogens” (priority 1996, dated 1999).

Settings: whether by intravenous or oral administration; cited from earlier work

SMILES: CCN[C@@H](C)Cc1cccc(C(F)(F)F)c1 [d-FEN]
- protein binding: about 36%
